# Laboratory results reported in US20070254863A1 (priority 2006, published 2007).
# Read-outs that look alike come from different tables or passages of the source.
# Assays:
# rat SUR2A = rat SUR2A (Rattus norvegicus, UniProt Q63563); test: In vitro binding affinity to rodent KATP channels: SUR2A ([3H]P1075 / [3H]glibenclamide displacement, COS cell membranes)
# Protocol: Therefore, two strategies can be used to detect binding to the sulfonylurea site on SUR2A.
# Membranes from COS-cells transiently expressing rat SUR2A were incubated in the presence of the radioligands with increasing concentrations of test compounds as described above. […] For each test compound four displacement curves were measured (displacement of [^3H]P1075 from the rat isoform of the wild type receptor and displacement of [^3H]glibenclamide from the rat isoform of SUR2AY1205S). Per curve 9-15 distinct concentrations were tested covering the relevant range. All measurements were repeated at least 5 times in independent experiments.
# (§1) [^3H]glibenclamide (specific activity 51 Ci mmol^−1) was obtained from NEN (Dreieich, Germany). Where needed, stock solutions were prepared in dimethylsulfoxide with a final solvent concentration in the media below 1%.
# (§2) SUR- or Kir6.x isoforms were used either subcloned in the pcDNA (hamster SUR1, mouse Kir6.2) or pCMV vector (rat SUR2A, SUR2B).
# (§3) For transfection, the cells were incubated 4 hours in a Tris-buffered salt solution containing DNA (5-10 μg/ml) plus DEAE-dextran (1 mg/ml), 2 min in HEPES-buffered salt solution plus dimethylsulfoxide (10%) and 4 hours in DMEM-HG plus chloroquine (100 μM). Cells were then returned to DMEM-HG plus 10% FCS. […] For binding experiments, resuspended membranes (final protein concentration 5-50 μg/ml) were incubated in “Tris-buffer” (50 mM, pH 7.4) containing either [^3H]glibenclamide (final concentration 0.3 nM or 3 nM and nonspecific binding defined by 100 nM or 1 μM glibenclamide for SUR1 or SUR2Y1205S-isoforms, respectively) or [^3H]P1075 (final concentration 3 nM, nonspecific binding defined by 100 μM pinacidil) and increasing concentrations of the test compounds. The free Mg^2+ concentration were kept close to 0.7 mM. […] Incubations were carried out for 1 h at room temperature and were terminated by rapid filtration through Whatman GF/B filters.
# (§4) The inhibition constant (Ki value) of the test substances was calculated from the respective IC50 value, and was stated as the negative logarithmic value thereof (pKi).
# [1] = biological target: human cannabinoid CB2 receptor (Homo sapiens, UniProt P34972); test: biochemical; assay type: binding
# Sequence of human cannabinoid CB2 receptor (P34972 whole entry): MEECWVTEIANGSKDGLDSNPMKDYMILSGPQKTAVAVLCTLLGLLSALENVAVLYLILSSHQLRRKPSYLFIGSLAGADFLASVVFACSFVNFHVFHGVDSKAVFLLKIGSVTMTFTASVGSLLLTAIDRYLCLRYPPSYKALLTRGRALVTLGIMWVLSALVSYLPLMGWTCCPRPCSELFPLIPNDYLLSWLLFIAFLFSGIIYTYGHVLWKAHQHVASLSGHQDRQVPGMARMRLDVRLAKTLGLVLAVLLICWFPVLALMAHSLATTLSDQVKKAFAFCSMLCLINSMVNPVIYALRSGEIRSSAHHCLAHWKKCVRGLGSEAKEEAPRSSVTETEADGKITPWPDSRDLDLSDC
# Protocol: 3. In Vitro Binding Affinity of the Test Compounds to CB2 Receptors
# After incubation of a freshly prepared cell membrane preparation with the [^3H]-ligand, with or without the addition of the compounds described herein, separation of bound and free ligand is performed by filtration over glass-fiber filters. Radioactivity on the filter is measured by liquid scintillation counting.
# hamster SUR1 = biological target: T1, hamster SUR1 (Cricetus cricetus, UniProt Q09427); test: In vitro binding affinity to rodent KATP channels: SUR1 ([3H]glibenclamide displacement, COS cell membranes); conditions: hamster SUR1 in COS cell membranes; read-out: Affinity to SUR 1 (converted)
# T1 construct: expressed in transfected cells; host or cells: COS-1 cells, transient (pcDNA vector)
# T1 sequence (Q09427 whole entry): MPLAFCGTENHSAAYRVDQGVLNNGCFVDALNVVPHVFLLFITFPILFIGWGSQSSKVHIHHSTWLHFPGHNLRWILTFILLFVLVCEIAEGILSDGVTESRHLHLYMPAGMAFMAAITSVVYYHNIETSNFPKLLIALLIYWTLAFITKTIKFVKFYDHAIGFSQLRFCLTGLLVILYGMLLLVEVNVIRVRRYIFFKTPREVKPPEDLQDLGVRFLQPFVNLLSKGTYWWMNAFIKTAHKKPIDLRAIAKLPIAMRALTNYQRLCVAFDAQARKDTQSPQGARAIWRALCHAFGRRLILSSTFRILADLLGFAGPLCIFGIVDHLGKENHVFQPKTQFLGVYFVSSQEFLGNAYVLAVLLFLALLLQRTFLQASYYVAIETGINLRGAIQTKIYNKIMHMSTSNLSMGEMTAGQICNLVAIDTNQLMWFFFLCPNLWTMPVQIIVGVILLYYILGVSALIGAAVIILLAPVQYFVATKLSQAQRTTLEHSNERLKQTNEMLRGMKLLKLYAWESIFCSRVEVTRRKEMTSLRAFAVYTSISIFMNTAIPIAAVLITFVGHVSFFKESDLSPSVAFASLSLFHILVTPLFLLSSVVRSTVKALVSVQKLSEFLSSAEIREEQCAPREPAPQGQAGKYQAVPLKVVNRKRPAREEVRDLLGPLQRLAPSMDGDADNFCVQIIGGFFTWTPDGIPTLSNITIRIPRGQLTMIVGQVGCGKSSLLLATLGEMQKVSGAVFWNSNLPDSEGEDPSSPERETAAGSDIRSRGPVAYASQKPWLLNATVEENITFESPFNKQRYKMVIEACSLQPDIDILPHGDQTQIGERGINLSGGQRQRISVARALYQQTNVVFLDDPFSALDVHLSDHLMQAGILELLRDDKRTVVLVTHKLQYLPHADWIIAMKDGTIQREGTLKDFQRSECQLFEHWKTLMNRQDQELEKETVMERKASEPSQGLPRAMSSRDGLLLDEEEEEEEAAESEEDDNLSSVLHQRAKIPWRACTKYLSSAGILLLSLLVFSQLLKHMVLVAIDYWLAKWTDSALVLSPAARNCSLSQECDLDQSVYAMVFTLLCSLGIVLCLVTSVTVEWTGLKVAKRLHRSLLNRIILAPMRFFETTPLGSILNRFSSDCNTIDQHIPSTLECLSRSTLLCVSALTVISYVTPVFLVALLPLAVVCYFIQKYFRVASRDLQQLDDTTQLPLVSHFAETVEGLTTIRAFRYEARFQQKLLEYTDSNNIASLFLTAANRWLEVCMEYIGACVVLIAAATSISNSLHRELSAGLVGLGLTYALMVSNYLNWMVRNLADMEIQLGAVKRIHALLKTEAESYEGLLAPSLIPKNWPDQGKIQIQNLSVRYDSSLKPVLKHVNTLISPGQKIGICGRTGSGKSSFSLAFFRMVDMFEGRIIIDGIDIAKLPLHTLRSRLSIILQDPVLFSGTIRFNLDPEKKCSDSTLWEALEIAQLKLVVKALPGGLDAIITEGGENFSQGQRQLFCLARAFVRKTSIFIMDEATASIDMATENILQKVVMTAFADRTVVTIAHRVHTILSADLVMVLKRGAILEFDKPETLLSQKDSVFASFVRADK
# Protocol: 1. In Vitro Binding Affinity of the Test Compounds to Rodent KATP Channels
# Competitive binding experiments were performed to characterize the affinity of the test compounds for the binding sites for sulfonylureas and KATP channel openers (KCOS) on hamster SUR1. To assess the affinity for the sulfonylurea site, membranes from COS-cells transiently expressing hamster SUR1 were incubated in the presence of [^3H]glibenclamide with increasing concentrations of test compounds. […] For each test compound four displacement curves were measured (+/−MgATP from the human and hamster isoform). Per curve 9-15 distinct concentrations were tested covering the relevant range. All measurements were repeated at least 5 times in independent experiments.
# as §1, §2, §3, §4
# [2] = rat SUR2A in COS cell membranes
# [3] = cloned human CB2 receptor expressed in CHO cells, read-out: Affinity to CB2 (converted)
# Sequence of rat SUR2A (Q63563 whole entry): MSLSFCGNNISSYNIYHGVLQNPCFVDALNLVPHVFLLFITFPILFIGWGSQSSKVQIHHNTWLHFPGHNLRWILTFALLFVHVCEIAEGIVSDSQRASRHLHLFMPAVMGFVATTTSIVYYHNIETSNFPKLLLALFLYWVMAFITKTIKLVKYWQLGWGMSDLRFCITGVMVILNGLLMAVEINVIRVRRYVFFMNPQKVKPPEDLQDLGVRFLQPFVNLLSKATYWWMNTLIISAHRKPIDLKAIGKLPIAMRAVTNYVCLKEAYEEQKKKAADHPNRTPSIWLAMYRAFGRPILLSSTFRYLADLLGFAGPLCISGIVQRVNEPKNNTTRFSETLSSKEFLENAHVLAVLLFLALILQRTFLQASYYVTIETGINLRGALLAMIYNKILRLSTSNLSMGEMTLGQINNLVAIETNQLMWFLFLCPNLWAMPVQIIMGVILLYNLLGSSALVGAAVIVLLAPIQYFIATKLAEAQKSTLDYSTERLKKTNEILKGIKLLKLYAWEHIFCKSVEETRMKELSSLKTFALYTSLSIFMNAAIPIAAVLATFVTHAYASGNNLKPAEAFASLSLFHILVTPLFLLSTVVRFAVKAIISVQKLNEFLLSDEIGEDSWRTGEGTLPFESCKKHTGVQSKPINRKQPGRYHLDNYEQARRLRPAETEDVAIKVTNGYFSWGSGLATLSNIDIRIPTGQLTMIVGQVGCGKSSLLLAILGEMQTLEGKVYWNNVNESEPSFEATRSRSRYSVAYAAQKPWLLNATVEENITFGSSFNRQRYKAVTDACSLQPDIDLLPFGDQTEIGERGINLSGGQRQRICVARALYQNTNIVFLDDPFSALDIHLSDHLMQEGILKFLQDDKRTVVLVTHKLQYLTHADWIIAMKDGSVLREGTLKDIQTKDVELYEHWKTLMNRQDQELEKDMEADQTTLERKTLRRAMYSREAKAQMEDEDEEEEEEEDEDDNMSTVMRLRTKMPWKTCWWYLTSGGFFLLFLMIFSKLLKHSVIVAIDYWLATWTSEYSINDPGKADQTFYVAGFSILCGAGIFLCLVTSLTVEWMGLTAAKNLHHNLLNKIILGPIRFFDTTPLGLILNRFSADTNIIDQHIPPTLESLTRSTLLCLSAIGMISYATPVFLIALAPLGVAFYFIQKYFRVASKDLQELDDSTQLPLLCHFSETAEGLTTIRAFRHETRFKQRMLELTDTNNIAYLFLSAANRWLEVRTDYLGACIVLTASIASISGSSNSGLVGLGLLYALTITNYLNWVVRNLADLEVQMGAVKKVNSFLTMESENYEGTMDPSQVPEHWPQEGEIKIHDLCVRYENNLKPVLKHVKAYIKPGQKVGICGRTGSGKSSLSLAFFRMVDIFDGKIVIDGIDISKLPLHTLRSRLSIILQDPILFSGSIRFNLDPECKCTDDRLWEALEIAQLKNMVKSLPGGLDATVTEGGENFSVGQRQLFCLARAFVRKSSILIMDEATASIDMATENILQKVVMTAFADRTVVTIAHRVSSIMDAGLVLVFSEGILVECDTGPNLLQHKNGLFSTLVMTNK
Structure (SMILES),pKi (rat SUR2A; [2]),"Ki [1, 3] [µM]",Ki (hamster SUR1) [µM],pKi (rat SUR2A),Ki [1] [µM]
"CCc1c(C(=O)NC2CCCCC2)nc(-c2ccc(C)n2C)n1-c1ccccc1 [2-(1,5-Dimethyl-1H-pyrrol-2-yl)-5-ethyl-1-phenyl-1H-imidazole-4-carboxylic acid cyclohexylamide]",4.0,0.158,100,,
"O=C(NN1CCCCC1)c1nc(-c2ccc(Cl)cc2Cl)n(-c2ccc(Cl)cc2)c1CF [1-(4-Chloro-phenyl)-2-(2,4-dichloro-phenyl)-5-fluoromethyl-1H-imidazole-4-carboxylic acid piperidin-1-ylamide]",,0.794,6.31,5.5,
"NC(=NS(=O)(=O)c1ccc(Cl)cc1)N1CC(c2ccccc2)C(c2ccc(Cl)cc2)=N1 (stereo not shown) [N-{Amino-[3-(4-chloro-phenyl)-4-phenyl-4,5-dihydro-pyrazol-1-yl]-methylene}-4-chloro-benzenesulfonamide]",,,1,5.1,0.398
"Cn1c(C(=O)NN2CCCCC2)nc(-c2cc(Cl)ccc2Cl)c1-c1ccc(Cl)cc1 [5-(4-Chloro-phenyl)-4-(2,5-dichloro-phenyl)-1-methyl 1H-imidazole-2-carboxylic acid piperidin-1-ylamide]",,0.398,25.1,5.0,
"NC(Cc1ccc(Cl)c(Cl)c1)C(=O)N1CC(c2ccccc2)C(c2ccc(Cl)cc2)=N1 (stereo not shown) [2-Amino-1-[3-(4-chloro-phenyl)-4-phenyl-4,5-dihydro-pyrazol-1-yl]-3-(3,4-dichloro-phenyl)-propan-1-one]",,0.631,3.98,4.8,
CCc1c(C(=O)NN2CCCCC2)nc(-c2ncccc2C)n1-c1ccc(Cl)cc1 [1-(4-Chloro-phenyl)-5-ethyl-2-(3-methyl-pyridin-2-yl)-1H-imidazole-4-carboxylic acid piperidin-1-ylamide],,0.251,100,4.8,
"N/C(=N\S(=O)(=O)c1ccc(Cl)cc1)N1C[C@@H](c2ccccc2)C(c2ccc(Cl)cc2)=N1 (stereo in doubt) [N-{Amino-[3-(4-chloro-phenyl)-4-phenyl-4,5-dihydro-pyrazol-1-yl]-methylene}-4-chloro-benzenesulfonamide]",,,0.794,5.4,0.158
"CCc1c(C(=O)NN2CCCCC2)nn(-c2ccc(Cl)cc2Cl)c1-c1ccc(Br)cc1 [SR-147778, 5-(4-Bromo-phenyl)-1-(2,4-dichloro-phenyl)-4-ethyl-1H-pyrazole-3-carboxylic acid piperidin-1-ylamide, reference compound]",,1.26,3.16,,
"Cc1c(C(=O)NN2CCCCCC2)nc(-c2ccc(Cl)cc2Cl)n1-c1ccc(Cl)cc1 [1-(4-Chloro-phenyl)-2-(2,4-dichloro-phenyl)-5-methyl-1H-imidazole-4-carboxylic acid azepan-1-ylamide]",,0.0251,6.31,5.7,
"CCCCC/C=C\C/C=C\C/C=C\C/C=C\CCCC(=O)OC(CO)CO [2-AG, Icosa-5,8,11,14-tetraenoic acid 2-hydroxy-1-hydroxymethyl-ethyl ester, reference compound]",,3.98,2.51,,
"CN1CCC(CNC(=NS(=O)(=O)c2ccc(Cl)cc2)N2CC(c3ccccc3)C(c3ccc(Cl)cc3)=N2)C1 (stereo not shown) [4-Chloro-N-{[3-(4-chloro-phenyl)-4-phenyl-4,5-dihydro-pyrazol-1-yl]-[(1-methyl-pyrrolidin-3-ylmethyl)-amino]-methylene]-benzenesulfonamide]",,1,1,4.8,
"CON(C)C(=NS(=O)(=O)c1ccc(Cl)cc1)N1CC(c2ccccc2)C(c2ccc(Cl)cc2)=N1 (stereo not shown) [4-Chloro-N-[[3-(4-chloro-phenyl)-4-phenyl-4,5-dihydro-pyrazol-1-yl]-(methoxy-methyl-amino)-methylene]-benzenesulfonamide]",,,1.26,5.9,
"CCCCC/C=C\C/C=C\C/C=C\C/C=C\CCCCOC(CO)CO [Noladineether, reference compound]",,,3.98,,0.251
"CCCCCNC(=O)c1nc(-c2ccc(Cl)cc2Cl)n(-c2ccc(Br)cc2)c1CC [1-(4-Bromo-phenyl)-2-(2,4-dichloro-phenyl)-5-ethyl-1H-imidazole-4-carboxylic acid pentylamide]",5.6,,0.794,,
"CCSc1c(C(=O)NN2CCCCC2)nc(-c2ccc(Cl)cc2Cl)n1-c1ccc(Cl)cc1 [1-(4-Chloro-phenyl)-2-(2,4-dichloro-phenyl)-5-ethylsulfanyl-1H-imidazole-4-carboxylic acid piperidin-1-ylamide]",,,7.94,5.3,
CCc1c(C(=O)NN2CCCCC2)nc(-c2ccccc2Cl)n1-c1ccc(Cl)cn1 [2-(2-Chloro-phenyl)-1-(5-chloro-pyridin-2-yl)-5-ethyl-1H-imidazole-4-carboxylic acid piperidin-1-ylamide],,,100,4.8,
"CCc1c(C(=O)NN2CCCCC2)nc(-c2ccc(Cl)cc2Cl)n1-c1ccc(Br)cc1 [1-(4-Bromo-phenyl)-2-(2,4-dichloro-phenyl)-5-ethyl-1H-imidazol-4-carboxylic acid piperidin-1-ylamide]",,,3.98,5.3,
"CCC1CN=C(N2CC(c3ccccc3)C(c3ccc(Cl)cc3)=N2)O1 (stereo not shown) [2-[3-(4-Chloro-phenyl)-4-phenyl-4,5-dihydro-pyrazol-1-yl]-5-ethyl-4,5-dihydro-oxazole]",,,3.16,4.4,
O=S(=O)(N=C(NCC1CCNCC1)N1CC(c2ccccc2)C(c2ccc(Cl)cc2)=N1)c1ccc(Cl)cc1 (stereo not shown),,,0.631,4.9,
"Cc1c(NC(=O)N2CCCCC2)nn(-c2ccc(Cl)cc2Cl)c1-c1ccc(Cl)cc1 [Piperidine-1-carboxylic acid [5-(4-chloro-phenyl)-1-(2,4-dichloro-phenyl)-4-methyl-1H-pyrazol-3-yl]-amide]",,,20,4.7,
"O=S(=O)(N=C(NCCCCN1CCCC1)N1CC(c2ccccc2)C(c2ccc(Cl)cc2)=N1)c1ccc(Cl)cc1 (stereo not shown) [4-Chloro-N-[[3-(4-chloro-phenyl)-4-phenyl-4,5-dihydro-pyrazol-1-yl]-(4-pyrrolidin-1-yl-butylamino)-methylene]-benzenesulfonamide]",,,50.1,5.4,
"O=S(=O)(N=C(NCCF)N1CC(c2ccccc2)C(c2ccc(Cl)cc2)=N1)c1ccc(Cl)cc1 (stereo not shown) [drawing 45, 4-Chloro-N-[[3-(4-chloro-phenyl)-4-phenyl-4,5-dihydro-pyrazol-1-yl]-(2-fluoro-ethylamino)-methylene]-benzenesulfonamide]",,,25.1,4.6,
"O=C(NN1CCCC1)c1nc(-c2ccc(Cl)cc2)n(-c2ccc(Cl)cc2Cl)n1 [5-(4-Chloro-phenyl)-1-(2,4-dichloro-phenyl)-1H-[1,2,4]triazole-3-carboxylic acid pyrrolidin-1-ylamide]",,,100,4.4,
"O=C(NS(=O)(=O)c1ccc(Cl)cc1)N1CC(c2ccccc2)C(c2ccc(Cl)cc2)=N1 (stereo not shown) [4-Chloro-N-[3-(4-chloro-phenyl)-4-phenyl-4,5-dihydro-pyrazole-1-carbonyl]-benzenesulfonamide]",,,3.16,4.8,
"O=C(NN1CCCCC1)c1nc(-c2ccc(Cl)cc2Cl)n(-c2ccc(Cl)cc2)c1CN1CCCC1 [1-(4-Chloro-phenyl)-2-(2,4-dichloro-phenyl)-5-pyrrolidin-1-ylmethyl-1H-imidazole-4-carboxylic acid piperidin-1-ylamide]",4.6,,100,,
"C[S+]([O-])c1c(C(=O)NN2CCCCC2)nc(-c2ccc(Cl)cc2Cl)n1-c1ccc(Cl)cc1 (stereo not shown) [1-(4-Chloro-phenyl)-2-(2,4-dichloro-phenyl)-5-methanesulfinyl-1H-imidazole-4-carboxylic acid piperidin-1-ylamide]",4.9,,100,,
